ChEMBL document CHEMBL5463721, “Data for DCP probe WEB2086” (2023)

Tests used:
[1] = target: L-type calcium channel (dihydropyridine site), Cav1.2 alpha-1C (Rattus norvegicus, UniProt P22002); assay: Inhibitor of CA+/DHPSI/R in the Eurofins Cerep SafetyScreen44 (BI) by Radioactive Assay (Cerep_161); format: protein assay; design: scale not given: the % may be the effect or the level left; conditions: rat brain, probe [3H](+)PN200-110, compound concentration 10 uM, read-out: % Ctrl
[2] = target: Tyrosine-protein kinase Lck (Homo sapiens) (UniProt P06239); assay: Inhibitor of LCK_CE in the Eurofins Cerep SafetyScreen44 (BI) by lanthanide chelation excitation (Cerep_2906); conditions: Compound concentration 10.0 uM
[3] = target: Histamine H1 receptor (Homo sapiens) (UniProt P35367); assay: H1 Eurofins-Cerep binding assay; design: ligand concentration 1 nM; conditions: Compound concentration 10.0 uM
[4] = target: D(2) dopamine receptor (Homo sapiens) (UniProt P14416); assay: Agonist activity in the Eurofins Cerep SafetyScreen44 (BI) against D2SH_AGON by Scintillation counting (Cerep_1322); conditions: Compound concentration 10.0 uM
[5] = target: Adenosine receptor A2a (Homo sapiens) (UniProt P29274); assay: A2A Eurofins-Cerep binding assay; design: ligand concentration 6 nM; conditions: Compound concentration 10.0 uM
Sequence of Adenosine receptor A2a (Homo sapiens) (P29274 whole entry): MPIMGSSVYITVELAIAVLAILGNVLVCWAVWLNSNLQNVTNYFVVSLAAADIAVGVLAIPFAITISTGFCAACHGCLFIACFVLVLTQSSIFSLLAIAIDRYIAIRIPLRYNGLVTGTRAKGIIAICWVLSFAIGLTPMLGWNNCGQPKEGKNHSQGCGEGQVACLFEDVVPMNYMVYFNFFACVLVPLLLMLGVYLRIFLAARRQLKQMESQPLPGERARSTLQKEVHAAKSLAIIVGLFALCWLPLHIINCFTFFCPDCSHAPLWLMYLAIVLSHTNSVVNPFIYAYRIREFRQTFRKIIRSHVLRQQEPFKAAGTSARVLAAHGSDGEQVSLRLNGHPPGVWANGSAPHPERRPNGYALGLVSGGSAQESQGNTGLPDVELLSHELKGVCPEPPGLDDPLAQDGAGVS

[6] = target: 5-hydroxytryptamine receptor 1B (Homo sapiens) (UniProt P28222); assay: 5-HT1B Eurofins-Cerep binding assay; design: ligand concentration 1 nM; conditions: Compound concentration 10.0 uM
[7] = target: Histamine H2 receptor (Homo sapiens) (UniProt P25021); assay: H2 Eurofins-Cerep binding assay; design: ligand concentration 0.075 nM; conditions: Compound concentration 10.0 uM
Sequence of Histamine H2 receptor (Homo sapiens) (P25021 whole entry): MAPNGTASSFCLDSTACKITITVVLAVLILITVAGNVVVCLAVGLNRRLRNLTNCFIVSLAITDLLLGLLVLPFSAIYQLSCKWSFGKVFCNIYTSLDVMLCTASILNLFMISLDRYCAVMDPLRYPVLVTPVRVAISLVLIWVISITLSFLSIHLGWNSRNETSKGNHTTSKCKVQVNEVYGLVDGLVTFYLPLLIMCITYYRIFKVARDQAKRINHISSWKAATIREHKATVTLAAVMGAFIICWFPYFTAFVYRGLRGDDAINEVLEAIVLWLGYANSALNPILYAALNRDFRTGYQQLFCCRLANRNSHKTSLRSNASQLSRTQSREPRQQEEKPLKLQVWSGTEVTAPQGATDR

[8] = target: Sodium-dependent serotonin transporter (Homo sapiens) (UniProt P31645); assay: 5-HT transporter Eurofins-Cerep binding assay; design: ligand concentration 2 nM; conditions: Compound concentration 10.0 uM
Sequence of Sodium-dependent serotonin transporter (Homo sapiens) (P31645 whole entry, looked up): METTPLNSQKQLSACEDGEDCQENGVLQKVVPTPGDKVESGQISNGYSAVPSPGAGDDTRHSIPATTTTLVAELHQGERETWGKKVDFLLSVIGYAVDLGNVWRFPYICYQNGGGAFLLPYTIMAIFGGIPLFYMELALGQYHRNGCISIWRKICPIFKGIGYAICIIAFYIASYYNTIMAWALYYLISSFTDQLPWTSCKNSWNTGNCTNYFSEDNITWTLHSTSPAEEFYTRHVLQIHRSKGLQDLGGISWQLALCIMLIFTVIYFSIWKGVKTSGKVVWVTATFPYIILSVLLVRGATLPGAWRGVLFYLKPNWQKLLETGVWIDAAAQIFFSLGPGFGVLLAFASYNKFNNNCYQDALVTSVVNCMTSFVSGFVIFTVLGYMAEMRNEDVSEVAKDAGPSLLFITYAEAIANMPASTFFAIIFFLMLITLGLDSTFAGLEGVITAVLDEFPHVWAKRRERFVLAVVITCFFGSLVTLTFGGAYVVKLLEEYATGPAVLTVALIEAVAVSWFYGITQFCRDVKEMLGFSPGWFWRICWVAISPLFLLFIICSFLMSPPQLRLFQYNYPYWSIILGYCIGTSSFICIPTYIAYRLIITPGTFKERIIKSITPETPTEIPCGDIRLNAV

[9] = target: Prostaglandin G/H synthase 1 (Homo sapiens) (UniProt P23219); assay: Inhibitor of COX-1 in the Eurofins Cerep SafetyScreen44 (BI) by Fluorimetry (Cerep_4173); conditions: Compound concentration 10.0 uM
[10] = target: Kappa-type opioid receptor (Homo sapiens) (UniProt P41145); assay: kappa (KOP) Eurofins-Cerep binding assay; conditions: Compound concentration 10.0 uM
[11] = target: Cannabinoid receptor 2 (Homo sapiens) (UniProt P34972); assay: Activity against CB2/PERIPH/H in the Eurofins Cerep SafetyScreen44 (BI) by Radioactive Assay (Cerep_37); conditions: Compound concentration 10.0 uM
[12] = target: Sodium-dependent noradrenaline transporter (Homo sapiens) (UniProt P23975); assay: norepinephrine transporter Eurofins-Cerep binding assay; design: ligand concentration 1 nM; conditions: Compound concentration 10.0 uM
Sequence of Sodium-dependent noradrenaline transporter (Homo sapiens) (P23975 whole entry): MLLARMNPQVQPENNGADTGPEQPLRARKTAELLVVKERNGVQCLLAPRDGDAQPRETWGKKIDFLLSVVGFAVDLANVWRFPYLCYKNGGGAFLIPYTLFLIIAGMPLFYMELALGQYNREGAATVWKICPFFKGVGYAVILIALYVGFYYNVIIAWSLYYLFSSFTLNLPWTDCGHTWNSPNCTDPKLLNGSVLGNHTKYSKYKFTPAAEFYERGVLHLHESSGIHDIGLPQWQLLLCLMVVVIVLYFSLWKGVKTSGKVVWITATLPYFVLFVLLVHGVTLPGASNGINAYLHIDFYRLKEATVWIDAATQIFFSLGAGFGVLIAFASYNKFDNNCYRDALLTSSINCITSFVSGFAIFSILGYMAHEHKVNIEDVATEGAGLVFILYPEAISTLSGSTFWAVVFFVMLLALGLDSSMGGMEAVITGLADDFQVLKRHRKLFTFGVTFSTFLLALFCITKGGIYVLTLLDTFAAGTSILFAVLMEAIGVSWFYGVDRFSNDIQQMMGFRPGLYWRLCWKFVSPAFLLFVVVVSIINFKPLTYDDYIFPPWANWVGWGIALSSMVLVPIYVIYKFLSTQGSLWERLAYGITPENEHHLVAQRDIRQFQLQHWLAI

[13] = target: Glutamate NMDA receptor (Rattus norvegicus) (UniProt P35439+Q00959+Q00960+Q00961+Q62645+Q8VHN2+Q9R1M7); assay: Inhibitor of NMDA/R in the Eurofins Cerep SafetyScreen44 (BI) by Radioactive Assay (Cerep_66); format: protein-complex assay; conditions: Compound concentration 10.0 uM
[14] = target: Endothelin-1 receptor (Homo sapiens) (UniProt P25101); assay: ETA Eurofins-Cerep binding assay; design: ligand concentration 0.03 nM; conditions: Compound concentration 10.0 uM
[15] = target: Glucocorticoid receptor (Homo sapiens) (UniProt P04150); assay: GR Eurofins-Cerep binding assay; conditions: Compound concentration 10.0 uM
[16] = target: 3',5'-cyclic-AMP phosphodiesterase 4D (Homo sapiens) (UniProt Q08499); assay: Inhibitor of PDE4D2 in the Eurofins Cerep SafetyScreen44 (BI) by Scintillation counting (Cerep_4077); conditions: Compound concentration 10.0 uM
[17] = target: Prostaglandin G/H synthase 2 (Homo sapiens) (UniProt P35354); assay: Inhibitor of COX-2 in the Eurofins Cerep SafetyScreen44 (BI) by Fluorimetry (Cerep_4186); conditions: Compound concentration 10.0 uM
[18] = target: Muscarinic acetylcholine receptor M2 (Homo sapiens) (UniProt P08172); assay: M2 Eurofins-Cerep binding assay; design: ligand concentration 2 nM; conditions: Compound concentration 10.0 uM
[19] = target: Cannabinoid receptor 1 (Homo sapiens) (UniProt P21554); assay: CB1 Eurofins-Cerep binding assay; conditions: Compound concentration 10.0 uM
Sequence of Cannabinoid receptor 1 (Homo sapiens) (P21554 whole entry): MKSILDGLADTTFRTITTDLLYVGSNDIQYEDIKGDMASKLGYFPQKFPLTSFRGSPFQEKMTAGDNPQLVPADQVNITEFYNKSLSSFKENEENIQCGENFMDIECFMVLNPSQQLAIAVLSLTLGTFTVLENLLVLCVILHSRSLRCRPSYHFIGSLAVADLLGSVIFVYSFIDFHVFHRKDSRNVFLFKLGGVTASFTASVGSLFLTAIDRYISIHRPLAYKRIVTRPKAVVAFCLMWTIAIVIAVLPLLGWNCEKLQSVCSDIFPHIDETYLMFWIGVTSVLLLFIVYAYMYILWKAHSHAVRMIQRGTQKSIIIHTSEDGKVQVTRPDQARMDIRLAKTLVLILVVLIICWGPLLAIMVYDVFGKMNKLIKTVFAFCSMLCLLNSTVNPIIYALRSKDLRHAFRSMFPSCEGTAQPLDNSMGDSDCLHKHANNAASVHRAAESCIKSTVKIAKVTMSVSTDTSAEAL

[20] = target: Angiotensin-converting enzyme (Homo sapiens) (UniProt P12821); assay: Activity against ACE(HU_AMTCH400) in the Eurofins Cerep SafetyScreen44 (BI) by Photometry (Cerep_3441); conditions: Compound concentration 10.0 uM
[21] = target: Cholecystokinin receptor type A (Homo sapiens) (UniProt P32238); assay: CCK1 (CCKA) Eurofins-Cerep binding assay; design: ligand concentration 0.08 nM; conditions: Compound concentration 10.0 uM
Sequence of Cholecystokinin receptor type A (Homo sapiens) (P32238 whole entry): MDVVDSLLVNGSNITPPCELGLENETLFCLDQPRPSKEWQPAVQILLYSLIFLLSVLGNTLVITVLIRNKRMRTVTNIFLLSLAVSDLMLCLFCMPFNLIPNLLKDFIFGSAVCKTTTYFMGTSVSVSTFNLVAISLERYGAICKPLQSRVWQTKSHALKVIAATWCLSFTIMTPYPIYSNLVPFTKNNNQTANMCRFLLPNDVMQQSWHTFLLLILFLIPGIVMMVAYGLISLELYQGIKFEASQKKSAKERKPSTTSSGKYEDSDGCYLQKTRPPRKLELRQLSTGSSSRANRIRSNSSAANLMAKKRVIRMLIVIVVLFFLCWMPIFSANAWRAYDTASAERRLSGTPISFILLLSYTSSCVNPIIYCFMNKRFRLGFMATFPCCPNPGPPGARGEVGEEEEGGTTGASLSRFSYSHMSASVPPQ

[22] = target: 5-hydroxytryptamine receptor 1A (Homo sapiens) (UniProt P08908); assay: 5-HT1A Eurofins-Cerep binding assay; design: ligand concentration 0.5 nM; conditions: Compound concentration 10.0 uM
[23] = target: Alpha-1A adrenergic receptor (Homo sapiens) (UniProt P35348); assay: Agonist activity in the Eurofins Cerep SafetyScreen44 (BI) against ALPHA1AH_ANTAG by Scintillation counting (Cerep_2338); conditions: Compound concentration 10.0 uM
[24] = target: Muscarinic acetylcholine receptor M1 (Homo sapiens) (UniProt P11229); assay: M1 Eurofins-Cerep binding assay; design: ligand concentration 2 nM; conditions: Compound concentration 10.0 uM
[25] = target: Vasopressin V1a receptor (Homo sapiens) (UniProt P37288); assay: V1a Eurofins-Cerep binding assay; design: ligand concentration 0.3 nM; conditions: Compound concentration 10.0 uM
[26] = species: Rattus norvegicus; assay: Activity against BZD/CENTR/R in the Eurofins Cerep SafetyScreen44 (BI) by Radioactive Assay (Cerep_28); format: protein-complex assay; conditions: Compound concentration 10.0 uM
[27] = target: Muscarinic acetylcholine receptor M3 (Homo sapiens) (UniProt P20309); assay: M3 Eurofins-Cerep binding assay; design: ligand concentration 0.2 nM; conditions: Compound concentration 10.0 uM
[28] = species: Homo sapiens; assay: Agonist activity in the Eurofins Cerep SafetyScreen44 (BI) against N_NEURO_A4B2 by Radioligand Binding (Cerep_3029); format: protein-complex assay; conditions: Compound concentration 10.0 uM
[29] = target: Delta-type opioid receptor (Homo sapiens) (UniProt P41143); assay: delta (DOP) Eurofins-Cerep binding assay; design: ligand concentration 0.5 nM; conditions: Compound concentration 10.0 uM
[30] = target: 5-hydroxytryptamine receptor 2A (Homo sapiens) (UniProt P28223); assay: Agonist activity in the Eurofins Cerep SafetyScreen44 (BI) against 5HT2AH_AGON by Scintillation counting (Cerep_471); conditions: Compound concentration 10.0 uM
Sequence of 5-hydroxytryptamine receptor 2A (Homo sapiens) (P28223 whole entry): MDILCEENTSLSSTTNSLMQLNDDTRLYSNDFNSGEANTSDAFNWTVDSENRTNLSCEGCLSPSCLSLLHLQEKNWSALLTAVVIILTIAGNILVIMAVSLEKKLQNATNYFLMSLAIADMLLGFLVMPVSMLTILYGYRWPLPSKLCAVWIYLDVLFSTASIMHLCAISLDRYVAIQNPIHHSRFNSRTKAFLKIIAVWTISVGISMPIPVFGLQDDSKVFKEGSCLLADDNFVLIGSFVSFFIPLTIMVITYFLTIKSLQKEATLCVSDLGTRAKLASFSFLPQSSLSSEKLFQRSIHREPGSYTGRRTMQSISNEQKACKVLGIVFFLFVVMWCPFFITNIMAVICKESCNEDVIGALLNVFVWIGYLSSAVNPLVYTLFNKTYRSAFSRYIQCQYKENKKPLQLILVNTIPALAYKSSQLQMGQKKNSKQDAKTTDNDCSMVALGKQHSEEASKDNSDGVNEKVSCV

[31] = target: Beta-2 adrenergic receptor (Homo sapiens) (UniProt P07550); assay: beta 2 Eurofins-Cerep binding assay; conditions: Compound concentration 10.0 uM
[32] = target: D(1A) dopamine receptor (Homo sapiens) (UniProt P21728); assay: D1 Eurofins-Cerep binding assay; design: ligand concentration 0.3 nM; conditions: Compound concentration 10.0 uM
[33] = target: 5-hydroxytryptamine receptor 2B (Homo sapiens) (UniProt P41595); assay: 5-HT2B Eurofins-Cerep binding assay; conditions: Compound concentration 10.0 uM
[34] = target: hERG (KCNH2) (Homo sapiens, UniProt Q12809); assay: Inhibitor of HERG_DOFETILIDE in the Eurofins Cerep SafetyScreen44 (BI) by Scintillation counting (Cerep_4094); design: scale not given: the % may be the effect or the level left; conditions: probe [3H] dofetilide, compound concentration 10 uM, read-out: % Ctrl
Sequence of hERG (KCNH2) (Q12809 whole entry): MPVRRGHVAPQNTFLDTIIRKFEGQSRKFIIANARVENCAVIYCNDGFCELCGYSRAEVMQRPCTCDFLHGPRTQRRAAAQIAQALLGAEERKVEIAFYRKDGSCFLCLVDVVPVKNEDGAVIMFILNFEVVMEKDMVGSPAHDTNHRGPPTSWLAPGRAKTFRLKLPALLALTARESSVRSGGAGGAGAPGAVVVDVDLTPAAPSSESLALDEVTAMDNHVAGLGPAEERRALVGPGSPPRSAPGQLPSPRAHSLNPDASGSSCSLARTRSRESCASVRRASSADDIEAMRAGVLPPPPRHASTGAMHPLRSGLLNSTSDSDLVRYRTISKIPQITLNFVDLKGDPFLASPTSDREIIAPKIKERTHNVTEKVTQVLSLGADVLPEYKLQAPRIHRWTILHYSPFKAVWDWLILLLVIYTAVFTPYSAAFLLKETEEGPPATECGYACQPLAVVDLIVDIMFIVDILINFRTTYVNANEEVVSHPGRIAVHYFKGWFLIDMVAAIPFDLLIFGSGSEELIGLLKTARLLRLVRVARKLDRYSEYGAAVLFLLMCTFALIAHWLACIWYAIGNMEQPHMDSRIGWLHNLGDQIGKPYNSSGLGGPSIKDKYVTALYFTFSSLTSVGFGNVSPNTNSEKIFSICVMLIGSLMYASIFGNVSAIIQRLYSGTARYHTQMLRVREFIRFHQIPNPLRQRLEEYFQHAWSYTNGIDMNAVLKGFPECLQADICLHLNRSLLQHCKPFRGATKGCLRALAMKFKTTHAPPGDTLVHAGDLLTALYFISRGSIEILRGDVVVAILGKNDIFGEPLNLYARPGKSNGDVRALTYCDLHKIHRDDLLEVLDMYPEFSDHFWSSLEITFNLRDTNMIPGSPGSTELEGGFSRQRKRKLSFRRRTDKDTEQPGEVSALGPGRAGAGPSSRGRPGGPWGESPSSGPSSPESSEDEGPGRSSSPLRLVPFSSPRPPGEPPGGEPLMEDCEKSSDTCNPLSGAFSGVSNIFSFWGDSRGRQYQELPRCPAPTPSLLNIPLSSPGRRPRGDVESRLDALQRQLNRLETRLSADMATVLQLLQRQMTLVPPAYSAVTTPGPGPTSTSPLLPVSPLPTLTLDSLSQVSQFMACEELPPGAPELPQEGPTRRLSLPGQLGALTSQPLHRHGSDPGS

[35] = target: Alpha-2A adrenergic receptor (Homo sapiens) (UniProt P08913); assay: Inhibitor of ALPHA2A/HU in the Eurofins Cerep SafetyScreen44 (BI) by Radioactive Assay (Cerep_13); conditions: Compound concentration 10.0 uM
Sequence of Alpha-2A adrenergic receptor (Homo sapiens) (P08913 whole entry): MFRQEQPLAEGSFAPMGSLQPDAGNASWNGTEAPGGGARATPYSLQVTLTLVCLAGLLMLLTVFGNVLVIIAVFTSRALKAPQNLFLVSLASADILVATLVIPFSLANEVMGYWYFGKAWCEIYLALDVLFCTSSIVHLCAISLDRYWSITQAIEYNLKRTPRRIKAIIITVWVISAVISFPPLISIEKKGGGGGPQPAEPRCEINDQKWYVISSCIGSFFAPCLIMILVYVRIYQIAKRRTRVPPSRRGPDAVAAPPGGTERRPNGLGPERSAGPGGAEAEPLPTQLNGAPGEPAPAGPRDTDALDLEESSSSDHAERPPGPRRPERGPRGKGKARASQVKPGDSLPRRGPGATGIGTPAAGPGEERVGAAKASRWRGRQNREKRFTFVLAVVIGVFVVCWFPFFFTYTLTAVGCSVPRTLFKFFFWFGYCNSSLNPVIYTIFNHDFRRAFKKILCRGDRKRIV

[36] = target: Mu-type opioid receptor (Homo sapiens) (UniProt P35372); assay: mu (MOP) Eurofins-Cerep binding assay; design: ligand concentration 0.5 nM; conditions: Compound concentration 10.0 uM
[37] = target: cGMP-inhibited 3',5'-cyclic phosphodiesterase 3A (Homo sapiens) (UniProt Q14432); assay: Inhibitor of PDE3A in the Eurofins Cerep SafetyScreen44 (BI) by HTRF-homogeneous time resolved fluoresce (Cerep_4072); conditions: Compound concentration 10.0 uM
[38] = target: Sodium-dependent dopamine transporter (Homo sapiens) (UniProt Q01959); assay: dopamine transporter Eurofins-Cerep binding assay; conditions: Compound concentration 10.0 uM
[39] = target: 5-hydroxytryptamine receptor 3A (Homo sapiens) (UniProt P46098); assay: 5-HT3 Eurofins-Cerep binding assay; design: ligand concentration 0.5 nM; conditions: Compound concentration 10.0 uM
[40] = species: Rattus norvegicus; assay: KV channel Eurofins-Cerep binding assay; design: ligand concentration 0.01 nM; conditions: Compound concentration 10.0 uM
[41] = target: MAO-A (amine oxidase [flavin-containing] A) (Homo sapiens, UniProt P21397); assay: Agonist activity in the Eurofins Cerep SafetyScreen44 (BI) against MAO-A_ANTAG by Scintillation counting (Cerep_443); design: scale not given: the % may be the effect or the level left; conditions: rat, compound concentration 10 uM, read-out: % Ctrl
[42] = target: Beta-1 adrenergic receptor (Homo sapiens) (UniProt P08588); assay: beta 1 Eurofins-Cerep binding assay; design: ligand concentration 0.3 nM; conditions: Compound concentration 10.0 uM
[43] = target: Platelet-activating factor receptor (Homo sapiens, UniProt P25105); assay: PAF Receptor Binding
[44] = target: Androgen receptor (Homo sapiens) (UniProt P10275); conditions: Compound concentration 10.0 uM
Description: Activity against ANDROGEN/H in the Eurofins Cerep SafetyScreen44 (BI) by Radioactive Assay (Cerep_933)

Cc1nnc2n1-c1sc(CCC(=O)N3CCOCC3)cc1C(c1ccccc1Cl)=NC2 [APAFANT]
93% (not active): activity at 10 µM [41]
106% (not active): activity at 10 µM [1]
105% (not active): activity at 10 µM [34]
inactive: residual activity [2] 123% | residual activity [3] 101% | residual activity [4] 114% | residual activity [5] 104% | residual activity [6] 91% | residual activity [7] 108% | residual activity [8] 106% | residual activity [9] 96% | residual activity [10] 95% | residual activity [11] 111% | residual activity [12] 94% | residual activity [13] 101% | residual activity [14] 106% | residual activity [15] 105% | residual activity [16] 103% | residual activity [18] 98% | residual activity [19] 103% | residual activity [20] 96% | residual activity [21] 90% | residual activity [22] 101% | residual activity [23] 99% | residual activity [24] 107% | residual activity [25] 109% | residual activity [27] 98% | residual activity [28] 104% | residual activity [29] 99% | residual activity [30] 114% | residual activity [31] 107% | residual activity [32] 101% | residual activity [33] 86% | residual activity [35] 100% | residual activity [36] 108% | residual activity [37] 105% | residual activity [38] 97% | residual activity [39] 102% | residual activity [40] 94% | residual activity [42] 101%
active: residual activity [17] 47% | residual activity [26] 12%

Cc1nnc2n1-c1sc3c(c1C(c1ccccc1Cl)=NC2)C[C@@H](C(=O)N1CCOCC1)C3
93% (not active): activity at 10 µM [34]
660 nM (not active): Kd [43]
inactive: residual activity [2] 106% | residual activity [3] 100% | residual activity [4] 97% | residual activity [5] 106% | residual activity [6] 65% | residual activity [7] 100% | residual activity [8] 98% | residual activity [9] 97% | residual activity [10] 91% | residual activity [11] 107% | residual activity [12] 99% | residual activity [13] 97% | residual activity [14] 103% | residual activity [15] 115% | residual activity [16] 104% | residual activity [17] 96% | residual activity [18] 82% | residual activity [19] 123% | residual activity [44] 106% | residual activity [20] 102% | residual activity [21] 90% | residual activity [22] 88% | residual activity [23] 95% | residual activity [24] 104% | residual activity [25] 84% | residual activity [26] 102% | residual activity [27] 84% | residual activity [28] 94% | residual activity [29] 101% | residual activity [30] 100% | residual activity [31] 103% | residual activity [32] 97% | residual activity [33] 92% | residual activity [35] 102% | residual activity [36] 109% | residual activity [37] 109% | residual activity [38] 96% | residual activity [39] 103% | residual activity [40] 101% | residual activity [42] 88%
103% (not active): activity at 10 µM [1]
107% (not active): activity at 10 µM ([41]; target entry is the homologue from another species)
